The values that follow come from patent US20230077362A1 (CORTEVA AGRISCIENCE LLC, priority 2019, published 2023).

Data set [1] relates to Cabbage Looper (Trichoplusia ni) ("CL"), second instar larvae. Nature of the data set: Bioassay on cabbage looper (CL), 128-well diet tray assay. Particulars: for CL rating: C = not tested, D = no activity noticed. It is filed as in vivo. The procedure, abridged: (§1)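 Each value represents average percent mortality from eight wells. Larvae were kept in clear-covered trays at 25° C. for five to seven days on a 14-hour light, 10-hour dark schedule before scoring.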

Data set [2] deals with Beet Armyworm (Spodoptera exigua) ("BAW"), second instar larvae. In words: Bioassay on beet armyworm (BAW), 128-well diet tray assay. Particulars: for pest or weed control at 50 µg/cm2: Spodoptera exigua; for BAW rating: C = not tested, D = no activity noticed. Format: in vivo. The procedure, abridged:
as §1

The mark [3] stands for this setting: Trichoplusia ni, read-out: CL rating.
The mark [4] stands for this setting: Trichoplusia ni, read-out: CL (Biological Results, rating).
The mark [5] stands for this setting: read-out: BAW (Biological Results, rating).

Where two headings read alike, the source gives them in different places.

`CN(C)c1ccc(OCC(F)(F)F)c(N2C(=O)CS/C2=N\C(=O)Nc2ccc(-c3ncn(-c4ccc(S(=O)(=O)C(F)(F)F)cc4)n3)cc2F)c1` [Compound J672, (Z)-1-(3-(5-(Dimethylamino)-2-(2,2,2-trifluoroethoxy)phenyl)-4-oxothiazolidin-2-ylidene)-3-(2-fluoro-4-(1-(4-((trifluoromethyl)sulfonyl)phenyl)-1H-1,2,4-triazol-3-yl)phenyl)urea]: the pest or weed control at 50 µg/cm2 in data set [1] (setting [3]) and in data set [2] (read-out: BAW rating) was 50 to 100% throughout.

As to `Cc1cc(-n2cnc(-c3ccc(OC(F)(F)F)cc3)n2)ccc1NC(=O)/N=C1\SCC(=O)N1c1cc(N(C)C)ccc1C(F)(F)F` [Compound J468, (Z)-1-(3-(5-(Dimethylamino)-2-(trifluoromethyl)phenyl)-4-oxothiazolidin-2-ylidene)-3-(2-methyl-4-(3-(4-(trifluoromethoxy)phenyl)-1H-1,2,4-triazol-1-yl)phenyl)urea], the pest or weed control at 50 µg/cm2 in data set [1] (setting [3]) and in data set [2] (read-out: BAW rating) was 50 to 100% throughout.

Take `COCc1ccc(C)cc1N1C(=O)CS/C1=N\C(=O)Nc1ccc(-c2ncn(-c3ccc(C(F)(F)F)cn3)n2)cc1F` [Compound J298, (Z)-1-(2-Fluoro-4-(1-(5-(trifluoromethyl)pyridin-2-yl)-1H-1,2,4-triazol-3-yl)phenyl)-3-(3-(2-(methoxymethyl)-5-methylphenyl)-4-oxothiazolidin-2-ylidene)urea]: the pest or weed control at 50 µg/cm2 in data set [1] (setting [4]) and in data set [2] (setting [5]) was 50 to 100% in each case.

For the molecule `COC(C)c1ccc(C)cc1N1C(=O)CS/C1=N\C(=O)Nc1ccc(-c2ncn(-c3ccc(OC(F)(F)F)cn3)n2)cc1C(F)(F)F` (centres unmarked) [Compound J276, (Z)-1-(3-(2-(1-Methoxyethyl)-5-methylphenyl)-4-oxothiazolidin-2-ylidene)-3-(4-(1-(5-(trifluoromethoxy)pyridin-2-yl)-1H-1,2,4-triazol-3-yl)-2-(trifluoromethyl)phenyl)urea], the pest or weed control at 50 µg/cm2 in data set [1] (setting [4]) and in data set [2] (setting [5]) was 50 to 100% each time.

Consider `CCCc1ccc(C)cc1N1C(=O)CS/C1=N\C(=O)Nc1ccc(-c2ncn(-c3ccc(S(F)(F)(F)(F)F)cc3)n2)cc1F` [Compound J498], for which the CL rating entry in data set [1] (Table ABC, species CL) was “A (50-100)”. Also, the BAW rating entry in data set [2] (Table ABC, species BAW) is on record as “A (50-100)”.

As for `CCCc1ccc(C)cc1N1C(=O)CS/C1=N\C(=O)Nc1ccc(-c2ncn(-c3ccc(N(C(=O)OC)C(F)(F)F)cc3)n2)cc1F` [Compound J783, Methyl (Z)-(4-(3-(3-fluoro-4-(3-(3-(5-methyl-2-propylphenyl)-4-oxothiazolidin-2-ylidene)ureido)phenyl)-1H-1,2,4-triazol-1-yl)phenyl)(trifluoromethyl)carbamate], the pest or weed control at 50 µg/cm2 in data set [1] (setting [3]) and in data set [2] (read-out: BAW rating) was 50 to 100% throughout.

`Cc1ccc(C(C)C)c(N2C(=O)CS/C2=N\C(=O)Nc2ccc(-c3cn(-c4ccc(C(F)(F)F)cn4)cn3)cc2C)c1` [Compound J509, (Z)-1-(3-(2-Isopropyl-5-methylphenyl)-4-oxothiazolidin-2-ylidene)-3-(2-methyl-4-(1-(5-(trifluoromethyl)pyridin-2-yl)-1H-imidazol-4-yl)phenyl)urea]: the pest or weed control at 50 µg/cm2 in data set [1] (setting [3]) and in data set [2] (read-out: BAW rating) was 50 to 100% in each case.

Consider `CN(C)c1ccc(OCCC(F)(F)F)c(N2C(=O)CS/C2=N\C(=O)Nc2ccc(-c3ncn(-c4ccc(OC(F)(F)F)cc4)n3)cc2C(F)(F)F)c1` [Compound J118, (Z)-1-(3-(5-(Dimethylamino)-2-(3,3,3-trifluoropropoxy)phenyl)-4-oxothiazolidin-2-ylidene)-3-(4-(1-(4-(trifluoromethoxy)phenyl)-1H-1,2,4-triazol-3-yl)-2-(trifluoromethyl)phenyl)urea], for which the pest or weed control at 50 µg/cm2 in data set [1] (setting [4]) and in data set [2] (setting [5]) was 50 to 100% each time.

As for `Cc1ccc(OCCC(F)(F)F)c(N2C(=O)CS/C2=N\C(=O)Nc2ccc(-c3ncn(-c4ccc(OC(F)(F)F)cn4)n3)cc2C)c1` [Compound J255, (Z)-1-(3-(5-Methyl-2-(3,3,3-trifluoropropoxy)phenyl)-4-oxothiazolidin-2-ylidene)-3-(2-methyl-4-(1-(5-(trifluoromethoxy)pyridin-2-yl)-1H-1,2,4-triazol-3-yl)phenyl)urea], the pest or weed control at 50 µg/cm2 in data set [1] (setting [4]) and in data set [2] (setting [5]) was 50 to 100% each time.

As to `COC(C)c1ccc(C)cc1N1C(=O)CS/C1=N\C(=O)Nc1ccc(-c2nnc(-c3ccc(OC(F)(F)F)cc3)s2)cc1F` (centres unmarked) [Compound J504, (Z)-1-(2-Fluoro-4-(5-(4-(trifluoromethoxy)phenyl)-1,3,4-thiadiazol-2-yl)phenyl)-3-(3-(2-(1-methoxyethyl)-5-methylphenyl)-4-oxothiazolidin-2-ylidene)urea], the pest or weed control at 50 µg/cm2 in data set [1] (setting [3]) lay in the range of 50 to 100%; in data set [2] (read-out: BAW rating) it was 0 to 50%.

For the molecule `CC(C)c1ccc(N(C)C)cc1N1C(=O)CS/C1=N\C(=O)Nc1ccc(-c2ncn(-c3ccc(C(F)F)cn3)n2)cc1F` [Compound J347], the “CL (Biological Results, rating)” value in data set [1] (Cabbage Looper (Trichoplusia ni), C = Not Tested) is listed as “A (50-100)”. Further, in data set [2] (Beet Armyworm (Spodoptera exigua), C = Not Tested), the “BAW (Biological Results, rating)” value is “A (50-100)”.

As to `O=C(/N=C1\SCC(=O)N1c1ccccc1C(F)(F)F)Nc1ccc(-c2ncn(-c3ccc(OC(F)(F)F)cc3)n2)cc1` [Compound H10], the pest or weed control at 50 µg/cm2 in data set [1] (setting [4]) and in data set [2] (setting [5]) was 50 to 100% in each case.

For the molecule `COC(c1ccc(C)cc1N1C(=O)CS/C1=N\C(=O)Nc1ccc(-n2cnc(-c3ccc(OC(F)(F)F)cc3)n2)cc1Cl)C(F)(F)F` (centres unmarked) [Compound J729, (Z)-1-(2-Chloro-4-(3-(4-(trifluoromethoxy)phenyl)-1H-1,2,4-triazol-1-yl)phenyl)-3-(3-(5-methyl-2-(2,2,2-trifluoro-1-methoxyethyl)phenyl)-4-oxothiazolidin-2-ylidene)urea], the pest or weed control at 50 µg/cm2 in data set [1] (setting [3]) and in data set [2] (read-out: BAW rating) was 50 to 100% throughout.

Regarding `CCOCc1ccc(C)cc1N1C(=O)CS/C1=N\C(=O)Nc1ccc(-c2ncn(-c3ccc(C)cc3)n2)cc1F` [Compound J753, (Z)-1-(3-(2-(Ethoxymethyl)-5-methylphenyl)-4-oxothiazolidin-2-ylidene)-3-(2-fluoro-4-(1-(p-tolyl)-1H-1,2,4-triazol-3-yl)phenyl)urea], the pest or weed control at 50 µg/cm2 in data set [1] (setting [3]) and in data set [2] (read-out: BAW rating) was 50 to 100% throughout.

In the case of `COc1ccc(CC(F)(F)F)c(N2C(=O)CS/C2=N\C(=O)NCC(F)c2ccc(-c3ncn(-c4ccc(OC(F)(F)F)cc4)n3)cc2C)c1` (centres unmarked) [Compound H16], the pest or weed control at 50 µg/cm2 in data set [1] (setting [4]) and in data set [2] (setting [5]) was 50 to 100% each time.

Take `CCOC(C)c1ccc(C)cc1N1C(=O)CS/C1=N\C(=O)Nc1ccc(-c2cn(-c3ccc(OC(F)(F)F)cc3)cn2)cc1C` (centres unmarked) [Compound J486, (Z)-1-(3-(2-(1-Ethoxyethyl)-5-methylphenyl)-4-oxothiazolidin-2-ylidene)-3-(2-methyl-4-(1-(4-(trifluoromethoxy)phenyl)-1H-imidazol-4-yl)phenyl)urea]: the pest or weed control at 50 µg/cm2 in data set [1] (setting [3]) and in data set [2] (read-out: BAW rating) was 50 to 100% throughout.

Take `CCCc1ccc(N(C)C)cc1N1C(=O)CS/C1=N\C(=O)Nc1ccc(-c2ncn(-c3ccc(OC(F)(F)F)cn3)n2)cc1C#N` [Compound J269, (Z)-1-(2-Cyano-4-(1-(5-(trifluoromethoxy)pyridin-2-yl)-1H-1,2,4-triazol-3-yl)phenyl)-3-(3-(5-(dimethylamino)-2-propylphenyl)-4-oxothiazolidin-2-ylidene)urea]: the pest or weed control at 50 µg/cm2 in data set [1] (setting [4]) and in data set [2] (setting [5]) was 50 to 100% throughout.

In the case of `Cc1ccc(COCC(F)F)c(N2C(=O)CS/C2=N\C(=O)Nc2ccc(-c3ncn(-c4ccc(S(F)(F)(F)(F)F)cc4)n3)cc2F)c1` [Compound J446], the pest or weed control at 50 µg/cm2 in data set [1] (setting [3]) and in data set [2] (read-out: BAW rating) was 50 to 100% each time.

For `Cc1ccc(C(C)C)c(N2C(=O)CS/C2=N\C(=O)Nc2ccc(-c3ncn(-c4ccc(OC(F)(F)F)cc4)n3)cc2Cl)c1` [Compound J38, (Z)-1-(2-Chloro-4-(1-(4-(trifluoromethoxy)phenyl)-1H-1,2,4-triazol-3-yl)phenyl)-3-(3-(2-isopropyl-5-methylphenyl)-4-oxothiazolidin-2-ylidene)urea], the pest or weed control at 50 µg/cm2 in data set [1] (setting [4]) and in data set [2] (setting [5]) was 50 to 100% each time.

Regarding `COCc1ccc(N(C)C)cc1N1C(=O)CS/C1=N\C(=O)Nc1ccc(-c2cn(-c3ccc(S(F)(F)(F)(F)F)cc3)cn2)cc1F` [Compound J601, (Z)-1-(3-(5-(Dimethylamino)-2-(methoxymethyl)phenyl)-4-oxothiazolidin-2-ylidene)-3-(2-fluoro-4-(1-(4-(pentafluoro-λ^6-sulfaneyl)phenyl)-1H-imidazol-4-yl)phenyl)urea], the pest or weed control at 50 µg/cm2 in data set [1] (setting [3]) and in data set [2] (read-out: BAW rating) was 50 to 100% throughout.

The mortality is the share of the test organisms that died. Turning to `Cc1ccc(COCC(F)(F)F)c(N2C(=O)CS/C2=N\C(=O)Nc2ccc(-c3ncn(-c4ccc(C(F)(F)C(F)(F)F)cc4)n3)cc2F)c1` [Compound J793, (Z)-1-(2-Fluoro-4-(1-(4-(perfluoroethyl)phenyl)-1H-1,2,4-triazol-3-yl)phenyl)-3-(3-(5-methyl-2-((2,2,2-trifluoroethoxy)methyl)phenyl)-4-oxothiazolidin-2-ylidene)urea], the mortality at 50 µg/cm2 in data set [1] (Trichoplusia ni, Table ABC, species CL, 128-well diet tray assay, second instar larvae, read-out: CL rating (% control or mortality class)) fell in the range of 50 to 100%. The “BAW rating (% control or mortality class)” value in data set [2] (Table ABC, species BAW, 128-well diet tray assay, second instar larvae) is on record as “A (50-100)”.

Regarding `Cc1ccc(COCC(Cl)(Cl)Cl)c(N2C(=O)CS/C2=N\C(=O)Nc2ccc(-c3ncn(-c4ccc(S(F)(F)(F)(F)F)cc4)n3)cc2F)c1` [Compound J453], the CL rating entry in data set [1] (Table ABC, species CL) is recorded as “A (50-100)”. Moreover, the BAW rating entry in data set [2] (Table ABC, species BAW) is reported as “A (50-100)”.
